In patent US20210169882A1, “PHARMACEUTICAL COMPOSITION FOR PROTECTING OR MITIGATING RADIATION DAMAGE, AND FOR PREVENTING OR TREATING PULMONARY FIBROSIS” (KOREA INSTITUTE OF RADIOLOGICAL & MEDICAL SCIENCES, priority 2017, published 2021):

Tests used:
[1] = test system: lung tissue of a mouse animal model irradiated with 90 Gy; experiment: Inhibition test of GSK3 inhibitor on tissue damage caused by radiation (H&E staining); type: in vivo; conditions: 30 mg/kg intraperitoneally one hour before 90 Gy chest irradiation, two weeks after irradiation, compared to the non-treatment group (IR)
Procedure: The tissue of a mouse was fixed with 10% neutral formalin for one day, and a paraffin section was made. In order to remove the paraffin around the tissue, the tissue was allowed to react with a xylene solution and 95%, 90%, and 70% ethanol solutions in sequential order for 5 minutes each, and then immersed in a hematoxylin solution for 1 minute to stain the nuclei and then washed under running water for 10 minutes. Thereafter, the cytoplasm was stained by immersing the tissue in an eosin solution for 30 seconds. Thereafter, the tissue was immersed in 50%, 70%, 90%, and 95% ethanol solutions, and a xylene solution in sequential order, followed by dropping one drop of a mounting solution. Then, the tissue was covered with a cover slide and observed under a microscope (Carl Zeiss Vision). The lung tissue of a mouse animal model, in which the chest of the mouse was irradiated in a size of 3 mm with an intensity of 90 Gy, was fixed with 10% formalin, and a paraffin section was made. Thereafter, tissue inflammatory response and fibrosis were identified by using a hematoxylin and eosin staining method. […] Two weeks after the irradiation, the inflammatory response and fibrosis of the tissue damage site were identified by using a hamatoxylin and eosin staining method.

[2] = test system: lung tissue of bleomycin-injected mouse; experiment: Inhibition test of GSK3 inhibitor on tissue damage caused by bleomycin (bleomycin-induced pulmonary fibrosis model); type: in vivo; conditions: 30 mg/kg intraperitoneally one hour before 1.25 U/kg bleomycin into the airway; three weeks after injection; H&E and trichrome staining; compared to the non-treatment group
Procedure: (§1) The tissue of a mouse was fixed with 10% neutral formalin for one day, and a paraffin section was made. In order to remove the paraffin around the tissue, the tissue was allowed to react with a xylene solution and 95%, 90%, and 70% ethanol solutions in sequential order for 5 minutes each, and then immersed in a hematoxylin solution for 1 minute to stain the nuclei and then washed under running water for 10 minutes. Thereafter, the cytoplasm was stained by immersing the tissue in an eosin solution for 30 seconds. Thereafter, the tissue was immersed in 50%, 70%, 90%, and 95% ethanol solutions, and a xylene solution in sequential order, followed by dropping one drop of a mounting solution. Then, the tissue was covered with a cover slide and observed under a microscope (Carl Zeiss Vision).
The tissue of a mouse was fixed with 10% neutral formalin for one day, and a paraffin section was made. In order to remove paraffin around the tissue, the tissue was allowed to react with a xylene solution and 95%, 90%, and 70% ethanol solutions in sequential order for 5 minutes each. For the antigen activation of the tissue, the tissue was immersed in a 0.1 M citric acid solution (pH 6.0) and then boiled for 20 minutes. […]

[3] = test system: pulmonary vascular endothelial cells of irradiated C57BL/6 mouse lung; experiment: Pulmonary fibrosis inhibition test in experimental animal model (collagen, trichrome staining); type: in vivo; conditions: 30 mg/kg intraperitoneally one hour before 90 Gy lung irradiation, compared to the irradiation group (IR)
Procedure: The tissue of a mouse was fixed with 10% neutral formalin for one day, and a paraffin section was made. In order to remove paraffin around the tissue, the tissue was allowed to react with a xylene solution and 95%, 90%, and 70% ethanol solutions in sequential order for 5 minutes each. For the antigen activation of the tissue, the tissue was immersed in a 0.1 M citric acid solution (pH 6.0) and then boiled for 20 minutes. Subsequently, the tissue was allowed to react with a Bouin's solution for 1 minute, Weigert's hematoxylin for 10 minutes, phoshotunstic/phosphomolydic acid for 10 minutes, aniline blue for 5 minutes, and 1% acetic acid for 1 minute in sequential order. Thereafter, a dehydration process was performed, and then the tissue was covered with a cover glass and observed under a microscope (Carl Zeiss Vision).
In order to observe whether a phenomenon of pulmonary fibrosis of vascular endothelial cells is shown as the symptom of pulmonary fibrosis occurred after radiotherapy, the site of the lung of a C57BL/6 mouse was topically irradiated with an intensity of 90 Gy. After excising the lung from the mouse, the cross-section of the aorta of the lung tissue was stained by a trichrome staining method in order to identify collagen which is a protein shown upon fibrosis of the pulmonary vascular endothelial cells.

[4] = test system: vascular wall in the lung tissue of a mouse animal model irradiated with 90 Gy; experiment: Inhibition test of GSK3 inhibitor on in vivo vascular damage caused by radiation (vascular wall thickness, H&E staining); conditions: 30 mg/kg intraperitoneally one hour before 90 Gy chest irradiation, two weeks after irradiation, compared to the non-treatment group (IR)
Procedure: as §1
The lung tissue of a mouse animal model, in which the chest of the mouse was irradiated in a size of 3 mm with an intensity of 90 Gy, was fixed with 10% formalin, and a paraffin section was made. Thereafter, the tissue was stained with hematoxylin and eosin. Upon observing the tissue with this staining method, the cell nucleus is observed in blue and the cytoplasm in pink. One hour before irradiating the mouse animal model, 30 mg/kg of […] or CHIR-98014 was administered intraperitoneally. […]

[5] = test system: γH2AX; experiment: Inhibition test of GSK3 inhibitor on DNA damage caused by radiation (γH2AX immunostaining); type: in vivo, mouse; conditions: 30 mg/kg one hour prior to 90 Gy lung irradiation, compared to the non-treatment group (IR)
Procedure: The tissue of a mouse was fixed with 10% neutral formalin for one day, and a paraffin section was made. In order to remove paraffin around the tissue, the tissue was immersed in a xylene solution and 100%, 95%, 90%, and 70% ethanol solutions in sequential order. For the antigen activation of the tissue, the tissue was immersed in a 0.1 M citric acid solution (pH 6.0) and boiled for 30 minutes, and then reacted with 3% hydrogen peroxide for 15 minutes. The tissue was allowed to react with γH2AX (abcam), which was diluted in 1:200 ratio in a PBS solution (including phosphate based saline buffer and 0.1% triton x-100), at 4° C. for 16 hours. After washing the tissue with PBS, a secondary antibody conjugated with biotin was diluted in 1:200 ratio and reacted with the tissue at room temperature for 30 minutes. After reacting the tissue with ABC (Avidin biotin complex) at room temperature for 30 minutes and color-developing 3,3′-DAB (3,3′-diaminobenzidine), the tissue was counterstained with hematoxylin. Subsequently, the tissue was immersed in 50%, 70%, 90%, 95%, and 100% ethanol solutions and a xylene solution in sequential order, followed by dropping one drop of a mounting solution. Then, the tissue was covered with a cover slide and observed under a microscope (Carl Zeiss Vision). […]

Compound | infiltration of the inflammatory cells and the fibrotic matrix around blood vessels [1] | pathological characteristics (infiltration of inflammatory cells, deposition of collagen, fibrous nodules, interstitial thickening) [2] | blue sites of collagen (protein associated with pulmonary fibrosis) in inner wall of the aorta of the lung [3] | thickness of the vascular wall [4] | expression of γH2AX according to the DNA damage [5]
Nc1nc(NCCNc2ncc(-c3ncc[nH]3)c(-c3ccc(Cl)cc3Cl)n2)ccc1[N+](=O)[O-] [CHIR-98014, N-6-[2-[[4-(2,4-dichlorophenyl)-5-(1H-imidazol-2-yl)-2-pyrimidinyl]amino]ethyl]-3-nitro-2,6-pyridinediamine] | remarkably reduced | remarkably inhibited | remarkably reduced | remarkably reduced | remarkably reduced
Cc1c[nH]c(-c2cnc(NCCNc3ccc(C#N)cn3)nc2-c2ccc(Cl)cc2Cl)n1 [CHIR-99021, 6-[[2-[[4-(2,4-dichlorophenyl)-5-(5-methyl-1H-imidazol-2-yl)-2-pyrimidinyl]amino]ethyl]amino]-3-pyridinecarbonitrile] | remarkably reduced | remarkably inhibited | remarkably reduced | remarkably reduced | remarkably reduced
